From patent US20100272829A1, “COMPOSITION FOR TRANSDERMAL OR TRANSMUCOSAL ADMINISTRATION” (priority 2007, published 2010)

Key:
[1] = Solubility in artificial seawater (zinc determined by atomic absorption spectrometry); assay type: physicochemical
Protocol: The solubility of samples shown below in artificial sweater was measured.
Artificial sweater (pH of 7.8) was added to each sample shown below to make total amount of 500 mL, followed by shaking at 20° C. for 24 hours. After filtration, determination of zinc was performed by subjecting the filtrate to atomic absorption spectrometry.

[2] = test system: Malassezia furfur NBRC 0656; test: Antibacterial test I (MIC) by a liquid culture method; assay type: cell-based; conditions: Sabouraud glucose medium + 1% olive oil, shaking at 30° C., 10^6cfu/mL
Protocol: With respect to the composition of zinc pyrithione and hydrous titanium oxide of Example 2, an antibacterial test (MIC) against Malassezia furfur by a liquid culture method was performed in comparison with zinc pyrithione.
Sample 17: Composition of zinc pyrithione (manufactured by Arch Chemicals, Inc.) and hydrous titanium oxide (Example 2) Sample 18: Zinc pyrithione (manufactured by Arch Chemicals, Inc.) Test fungi: Malassezia furfur NBRC 0656 Test medium: 1% olive oil is added to Sabouraud glucose medium Test conditions: shaking culture at 30° C. for 4 days (120 rpm)

[3] = test system: Malassezia furfur NBRC 0656; test: Antibacterial test II (MIC) by an agar medium; assay type: cell-based; conditions: YM agar medium added with olive oil, 28° C., 10^5cfu/mL
Protocol: With respect to the composition of zinc pyrithione and hydrous titanium oxide (Example 3), an antibacterial test (MIC) against Malassezia furfur by an agar medium was performed in comparison with zinc pyrithione.
Sample 19: Composition of zinc pyrithione (manufactured by Kolon Life Science Inc.) and hydrous titanium oxide (Example 3) Sample 20: Zinc pyrithione (manufactured by Kolon Life Science Inc.) Test fungi: Malassezia furfur NBRC 0656 Test medium: YM agar medium added with olive oil Test conditions: culture at 28° C. for 7 days

[4] = Yellowness (b* value) of water suspension samples allowed to stand outside for 10 days (photolysis); assay type: physicochemical; conditions: suspension in distilled water, dried and ground
Protocol: The following water suspension samples are charged in a glass bottle, allowed to stand outside for 10 days, dried and ground, and then yellowness (b* value) was measured by a colorimeter.

[5] = artificial seawater pH 7.8, shaking at 20° C. for 24 hours, filtrate

zinc pyrithione [Sample 2]
Solubility in artificial seawater I: Quantitative value of zinc [1, 5]: 1.16 µg/mL | Solubility in artificial seawater I: Value in terms of zinc pyrithione [1, 5]: 5.64 µg/mL | MIC, 2 days ([2]; 2 days): 6.25 µg/mL | MIC, 4 days ([2]; 4 days): 6.25 µg/mL

zinc pyrithione [Sample 6]
Solubility in artificial seawater II: Value in terms of zinc pyrithione ([1]; artificial seawater pH 7.8, 20° C., 24 hours): 5.24 µg/mL | Solubility in artificial seawater II: Quantitative value of zinc ([1]; artificial seawater pH 7.8, 20° C., 24 hours, for samples 7 and 8 zinc derived from zinc pyrithione and zinc oxide): 1.07 µg/mL | MIC, 7 days [3]: 6.25 µg/mL

zinc pyrithione [Sample 9]
Yellowness (b* value) [4]: 8.80
